From patent US20260327211A1, “MODULATORS OF A POTASSIUM CHANNEL AND OF TRPV1 CHANNEL AND USES THEREOF” (Bsense Bio Therapeutics Ltd., priority 2023, published 2026)
Read-outs that look alike come from different tables or passages of the source.

Assays:
[1] = Plasma protein binding, human; assay type: in vitro ADME; settings: read-out: PPB fu (human)
Description: Incubation: Test compounds or the positive control warfarin were introduced into 10% plasma samples (Sourced from WuXi DMPK labs or from commercial vendors) to a concentration of 2 μM. A portion of 150 μL of the compound-containing plasma sample was added to one chamber of a 96-well equilibrium HTD dialysis plate. An equal volume of dialysis buffer was added to the corresponding chamber. A plasma sample was also taken before the incubation and designated as the T0 sample, serving for recovery calculation. The plate was incubated in a humidified 5% CO2 incubator at 37° C. for 4 hours. Each incubation was set up in triplicate.
Sample extraction and preparation: Following the incubation period, samples of 50 μL were drawn from both the plasma side and the buffer side and each was mixed with an equal volume of blank plasma. All matrix-matched samples were quenched using a stop solution containing an internal standard (IS).
Sample Analysis: The samples were subsequently analyzed by LC-MS/MS. The concentrations of the test compound in plasma and buffer samples were quantified based on the peak area ratio of analyte to the internal standard, with no requirement for a standard curve.

CYP2C8 = molecular target: T1, CYP2C8 (Homo sapiens, UniProt P10632); test: CYP inhibition / time-dependent inhibition, CYP2C8_Amodiaquine; assay type: in vitro ADME; settings: role: inhibitor
T1 construct: pre-incubation of the human liver microsomes with the test compound; tissue Corning; host or cells: human liver microsomes
T1 sequence (P10632 1-490): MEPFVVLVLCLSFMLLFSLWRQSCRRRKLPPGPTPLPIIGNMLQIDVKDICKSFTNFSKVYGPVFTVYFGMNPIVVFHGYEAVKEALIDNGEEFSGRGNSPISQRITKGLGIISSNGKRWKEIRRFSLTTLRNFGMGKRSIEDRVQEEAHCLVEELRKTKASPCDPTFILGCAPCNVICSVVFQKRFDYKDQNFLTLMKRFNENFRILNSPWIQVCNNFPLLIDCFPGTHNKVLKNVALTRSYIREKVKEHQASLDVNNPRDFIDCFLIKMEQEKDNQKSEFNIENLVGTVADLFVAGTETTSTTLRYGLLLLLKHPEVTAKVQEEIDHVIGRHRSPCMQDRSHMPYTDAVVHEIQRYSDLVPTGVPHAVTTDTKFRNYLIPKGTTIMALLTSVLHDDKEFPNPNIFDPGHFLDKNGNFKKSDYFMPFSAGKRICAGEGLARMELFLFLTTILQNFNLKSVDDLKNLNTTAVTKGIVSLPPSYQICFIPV
Description: The time-dependent inactivation potency of the test compound to CYP enzymatic activities was assessed by the pre-incubation of the human liver microsomes with the test compound in the presence and absence of NADPH, followed by the incubation with the discrete marker substrates, as follows.
Pre-incubation with human liver microsomes (HLMs): The TDI inactivation potency on CYP enzymatic activities was evaluated through pre-incubation with HLMs (Corning). A liver microsome mixture at a concentration of 0.1 mg/mL, and the test compound at 8 different concentrations (0, 0.05, 0.165, 0.5, 1.65, 5.0, 16.5, or 50.0 μM) was warmed at 37° C. for 10 minutes. Concurrently, a set of known time-dependent inactivators was also prepared in duplicate for comparison. Following this, NADPH (1.0 mM) was added to one group (Group 1), and an equal volume of potassium phosphate buffer to the second group (Group 2), marking the beginning of a 30-minute pre-incubation at 37° C.
Incubation: After pre-incubation, the marker substrate, or marker substrate plus NADPH was added to the mixture, thereby initiating the incubation. The duration of the incubation was dependent on the type of CYP isoform being evaluated. For example, with the CYP3A isoform, the mixture was incubated over 3 minutes utilizing midazolam as the marker substrate (2.0 μM), verapamil as the standard inactivator (3.5 μM).
Termination of Reaction: Following the incubation, ice-cooled acetonitrile containing the internal standard (IS) was added to halt the reactions. Metabolites generated from the marker substrates were then measured via LC-MS/MS, assessed based on peak area ratios of the analyte to IS.

COX-1/2 = test: Functional selectivity panel, COX-1/2; assay type: biochemical; settings: up to 10 micromolar
Description: A broad panel of 78 recombinant targets was tested for pharmacologic activity in vitro through a variety of functional assays (Eurofins DiscoverX, USA), as part of the National Institute of Neurological Disorders and Stroke (NINDS) Preclinical Screening Platform for Pain (PSPP) program. The biological targets for the in vitro profiling have been selected based on avoiding opioid receptor stimulation and targets known to be associated with adverse events or targeted by drugs of abuse. […] For each test, a reference compound was evaluated at the target of interest as a positive control.

fraction unbound at 4 h, 2 µM [1]	IC50 (CYP2C8; (+)NADPH pre-incubation, substrate amodiaquine, read-out: IC50 (+)NADPH CYP2C8_Amodiaquine) [µM]	IC50 (CYP2C8; (−)NADPH pre-incubation, substrate amodiaquine, read-out: IC50 (−)NADPH CYP2C8_Amodiaquine) [µM]	Compound	IC50 (CYP2C8; Table 9, read-out: CYP inhibition IC50 CYP2C8) [µM]	Effect on COX-1/2 (COX-1/2)
0.003	16.5	14.3	O=C(Cc1cncc(-n2cc(Cl)c3cc(Cl)cc(Cl)c32)c1)N[C@@H]1COC[C@H]1O [Compound 661]		
			O=C(Cc1nccc(-n2cc(Cl)c3cc(Cl)cc(Cl)c32)n1)NC1COCC1O (centres unmarked) [Compound 760]	49.2	no effect
